In data set [1] the test system is high energy diet-induced Type II diabetes. Briefly: Sand rat high energy diet Type II diabetes model, glucose tolerance test and cataract formation (Example 6). It counts as in vivo, sand rat (Psammomis obesus). Particulars: for three hours response to an orally-administered glucose dose, value above the zero (standard diet Group I): 200 mg glucose per 100 g body weight, end of 53 day experiment, high energy diet; for Cataract formation: high energy diet (HE) sand rats, 53 days. The source says: (§1) Sand rats (Psammomis Obesus) were used as a model for Type 2 diabetes. The sand rats transferred onto high energy diet develop a severe form of Type 2 diabetes, including high blood glucose level, increase in body weight, and cataract development (eye lens opacification).
(§2) The sand rats were divided into groups. The animals from the Group I received the standard diet, serving as a control, whereas animals from the other indicated groups received high energy diet, leading to diabetes development. The high-energy diet ed mice were either untreated, or treated with intra-peritoneal injections of 2.5 mg/kg body weight Ga-DFO, Zn-DFO, DFO alone, Zn, Ga or lipoic acid (LA), either twice or three times per week, as indicated, for the duration of the experiment. The blood glucose and body weight of the animals were monitored throughout the experiment.
Forty two sand rats were divided into seven groups, six animals in each. The animals from Group I received the standard diet and used as a control. The animals from the Groups II, III, IV, V, VI and VII received high energy diet, leading to diabetes development, while Groups III, IV and VII were treated with Zn-DFO, Ga-DFO and DFO alone, respectively. The Groups V and VI received Zn and Ga, in their chloride salt form, alone respectively. Administration of the different treatments was as described, and the experiment lasted for 53 days. Glucose tolerance test was performed at the end of experiment. The cataract formation was tested as well.

The conditions of data set [2]: complex of desferrioxamine with the named metal ion; cited from earlier work.
A short description of data set [3]: pH limit of the complex solution during preparation (loss of biological activities). It counts as physicochemical. The settings on record: pH above 5.6; solution reacts with air-containing CO2.
The subject of data set [4] is ovalbumin-induced asthma. Briefly: Ovalbumin-induced asthma, prophylactic treatment model (lung ferritin). It counts as in vivo, BALB/c mice. Particulars: asthmatic mice, 1 and 0.3 mg/kg i.p., then 0.3 mg/kg i.n. Here is the method: Ferritin concentration was quantified using an indirect ‘sandwich’ ELISA assay in accordance with a procedure developed previously in our laboratory. Briefly, ELISA 96-well micro plates were pre-coated with goat anti-human L-ferritin antibody. Rabbit anti-human H-ferritin was used as the secondary antibody. Plates were treated with goat anti-rabbit IgG conjugated with β-galactosidase. Chlorophenol Red-β-D-Galactopyranoside was then added and the plates analyzed using a microplate reader with a test (570 nm) and reference (630 nm) filters.
• Twelve-week-old Balb/c mice were administered 10 μg (100 μl) ovalbumin (OVA) dissolved with 3 mg Al(OH)3 in 0.9% saline intraperitoneally (i.p.) on days 0, 7 and 14, and 10 μg (50 μl) OVA intranasally (i.n.) on days 20, 23, 25, 27, 29, 31, 34, 36, 37, 41, 43 and 45. […]
(§3) To estimate the anti-asthmatic effect of the complexes the following parameters were measured: the concentration of ferritin in the lungs, the presence of inflammatory cells infiltration into the lungs, and the amounts of macrophages, eosinophils, lymphocytes and neutrophils in bronchoalveolar lavages (BALs).

In data set [5] the test system is ovalbumin-induced asthma. Briefly: Ovalbumin-induced asthma, treatment of chronic asthma model (BAL cells, lung histology). Format: in vivo, BALB/c mice. Particulars: Mean ± SE. Here is the method:
• Twelve-week-old Balb/c mice were administered 10 μg (100 μl) ovalbumin (OVA) dissolved with 3 mg Al(OH)3 in 0.9% saline intraperitoneally (i.p.) on days 0, 7 and 14, and 10 μg (50 μl) OVA intranasally (i.n.) on days 20, 23, 25, 27, 29, 31, 34, 36, 37, 41, 43 and 45. For intranasal administration, mice were anesthetized with inhaled N-flurane and instilled with OVA i.n. with a micropipette. • Three-week-old BALB/c mice were sensitized (×3) with intra-peritoneal (i/p) injection (100 μl OVA solution, containing 0.3 mg OVA and 6.7 mg Al(OH)3, in 1 ml PBS) on days 0, 7 and 14. On days 14, 15, 17, 21 and 23 the mice were further sensitized with intranasal sprinklings (50 μl, each) of OVA in PBS solution containing 2 mg/ml OVA, as following: mice were anesthetized with inhaled N-flurane and instilled with OVA intra-nasally using a micropipette. Twenty-four hours after the last administration of OVA, the mice were sacrificed. Methacholine Challenge and Collection of Histologic Sections and Biochemical Samples
Either Zn-DFO, Ga-DFO, Zn-DFO and Ga-DFO 1:1 combination (herein metal complexes) or saline were administered as follows: on days −5, −1, 7 and 14, 1 mg/kg body weight metal complexes or saline were administered intraperitoneally (i.p.). On days 0, 6, 8, 13 and 15, 0.3 mg/kg body weight metal complexes or saline were administered i.p. On days 20, 23, 25, 27, 29, 31, 34, 36, 37, 41, 43 and 45, 0.3 mg/kg body weight metal complexes or saline were administered intranasally (i.n.). Twenty-four hours after the last sensitization, mice were anesthetized with urethane and the lungs were lavaged 4 times with 0.5 ml sterile PBS. Animals in the “control” group (non-asthmatic—saline treated, but not sensitized) (n=6) received saline injections and instillations, using the same regime as the asthmatic and treated animals. Animals of the “asthmatic” group (sensitized and saline-treated, rather than complex-treated) (n=6) received saline instead of the respective complex, under the same regime.
For the treatment of chronic asthma model, a similar experimental protocol was followed, with the following modifications: 1 mg/kg body weight metal complexes or saline were administered i.p. on day 0 (instead of days −5 and −1) and a further 0.3 mg/kg complexes or saline were administered on day 1. In this model, the effects of the complexes were investigated further by histological examination of lung sections stained with either haematoxylin-eosine or PAS/AB (periodic acid-Schiff/alcan blue).
as §3

The test system of data set [6] is high energy diet-induced Type II diabetes. Briefly: Sand rat high energy diet Type II diabetes model, blood glucose and body weight (Example 5). It counts as in vivo, sand rat (Psammomis obesus).
Text: as §1, §2
The sand rats were divided into four groups (6 animals in each). Animals from Group I received the standard diet, serving as a control. The animals from the Groups II, III and W received high energy diet, leading to diabetes development, while Groups III and IV were treated with Ga-DFO and lipoic acid (LA), respectively. The intra-peritoneal injections of 2.5 mg Ga-DFO or LA per kg body weight were performed twice a week, for 61 days. The blood glucose and body weight of the animals were monitored during all the experiment.

[7] abbreviates: Day 0, 2.5 mg/kg i.p. twice a week, mean, SD in the line below.
Where [8] appears, read: Day 7, 2.5 mg/kg i.p. twice a week.
Setting [9] is: Day 21, 2.5 mg/kg i.p. twice a week.
[10] abbreviates: Day 21, 2.5 mg/kg i.p. twice a week, 2.5 mg/kg.
Setting [11] is: Day 32, 2.5 mg/kg i.p. twice a week.
[12] abbreviates: Day 42, 2.5 mg/kg i.p. twice a week.
Setting [13] is: Day 49, 2.5 mg/kg i.p. twice a week.
[14] abbreviates: Day 56, 2.5 mg/kg i.p. twice a week.
Setting [15] is: Day 61, 2.5 mg/kg i.p. twice a week.
[16] abbreviates: Day 61, 2.5 mg/kg i.p. twice a week, 2.5 mg/kg.

Each structure is given as a SMILES string. Values joined by “and” are separate entries in the source; they are usually repeats but may differ in a detail not shown here. Equal entries are not always repeated.

Regarding `CC(=O)N(O)CCCCCNC(=O)CCC(=O)N(O)CCCCCNC(=O)CCC(=O)N(O)CCCCCN` [DFO, N′-{5-[acetyl(hydroxy)amino]pentyl}-N-[5-({4-[(5-aminopentyl)(hydroxy)amino]-4-oxobutanoyl}amino)pentyl]-N-hydroxy-succinamide], in data set [1], the “three hours response to an orally-administered glucose dose, value above the zero (standard diet Group I)” value (“three hours response” for short) stood at 150 mg/dL and the Cataract formation was found to be 25%.

In the case of `CC(=O)N([O-])CCCCCNC(=O)CCC(=O)N([O-])CCCCCNC(=O)CCC(=O)N([O-])CCCCCN.[Fe+3]` [Fe(III), reference compound], in data set [2], the “relative stability constants for the complexes of desferrioxamine” value was 10^31.

Regarding `[Cl-].[Cl-].[Cl-].[Ga+3]` [Ga, Gallium (III) chloride], in data set [1], the “three hours response” value stood at 25 mg/dL and the Cataract formation amounted to 36%.

`CC(=O)N([O-])CCCCCNC(=O)CCC(=O)N([O-])CCCCCNC(=O)CCC(=O)N([O-])CCCCCN.[Ga+3]` [Ga-DFO, gallium-desferrioxamine]: the “effect of higher pH on the Ga-DFO solution” value in data set [3] was “marked loss of the biological activities”. In addition, in the data set with ovalbumin-induced asthma [4], the lung ferritin level was 0.5 ± 0.3 µg/mg. Also, the “Eosinophils in BAL fluid” value in the data set on ovalbumin-induced asthma [5] is recorded as 0.2 ± 0.02^# 10^4 cells/ml. The “Lymphocytes in BAL fluid” value in the data set on ovalbumin-induced asthma [5] was 0.3 ± 0.06^# 10^4 cells/ml. The “Macrophages in BAL fluid” value in the data set on ovalbumin-induced asthma [5] was 3.3 ± 0.2^# 10^4 cells/ml. Further, the “Neutrophils in BAL fluid” value in the data set with ovalbumin-induced asthma [5] is reported as 0.3 ± 0.07^# 10^4 cells/ml. Moreover, in the data set on ovalbumin-induced asthma [5], the “Total WBC in BAL fluid” value was 4.5 ± 0.6^# 10^4 cells/ml. The Blood glucose level in data set [6] (setting [7]) was 91.8 mg/dL; in data set [6] (setting [8]), 94.6 mg/dL; in data set [6] (setting [10]), 176 ± 46 mg/dL and 176.4 mg/dL; in data set [6] (setting [11]), 81.2 mg/dL; in data set [6] (setting [12]), 89.0 mg/dL; in data set [6] (setting [13]), 122.0 mg/dL. Further, the Blood glucose level was 129.2 mg/dL in data set [6] (setting [14]); 98 ± 29 mg/dL and 97.8 mg/dL in data set [6] (setting [16]). The Body weight in data set [6] (setting [7]) came to 131.6 g; in data set [6] (setting [8]) it was 154.0 g; in data set [6] (setting [9]), 173.2 g; in data set [6] (setting [11]) it was 180.4 g; in data set [6] (setting [12]), 192.4 g; in data set [6] (setting [13]), 204.0 g. Moreover, the Body weight in data set [6] (setting [14]) is recorded as 212.4 g; in data set [6] (setting [15]), 214.4 g. Moreover, the “three hours response” value in data set [1] stood at 5 mg/dL. The molecule also gave a Cataract formation in data set [1] of 11%. The “relative stability constants for the complexes of desferrioxamine” value in data set [2] is listed as 10^28.

Regarding `O=C(O)CCCCC1CCSS1` (stereo not shown) [LA, Lipoic acid, reference compound], the Blood glucose level is 92.8 mg/dL in data set [6] (setting [7]); 97.4 mg/dL in data set [6] (setting [8]); 259 ± 49 mg/dL and 259.4 mg/dL in data set [6] (setting [10]); 176.4 mg/dL in data set [6] (setting [11]); 196.4 mg/dL in data set [6] (setting [12]); 185.2 mg/dL in data set [6] (setting [13]). Further, the Blood glucose level in data set [6] (setting [14]) is 220.6 mg/dL; in data set [6] (setting [16]), 168 ± 33 mg/dL and 167.8 mg/dL. The Body weight is on record as 113.4 g in data set [6] (setting [7]); 137.0 g in data set [6] (setting [8]); 160.4 g in data set [6] (setting [9]); 170.2 g in data set [6] (setting [11]); 189.2 g in data set [6] (setting [12]); 201.4 g in data set [6] (setting [13]). The values for the Body weight in data set [6] (setting [14]) and in data set [6] (setting [15]) were 211.8 g and 218.0 g, respectively.

For `[Cl-].[Cl-].[Zn+2]` [Zn, Zinc chloride], in data set [1], the “three hours response” value was 38 mg/dL and the Cataract formation is listed as 22%.

The values are drawn from patent US9770430B2, “Desferrioxamine-metal complexes for the treatment of immune-related disorders” (priority 2009, dated 2017).
